pKi: −log10 of the molar value.
The compounds below were run on Mus musculus (assay: Tested for its analgesic activity in the mouse formalin test (20 umol/kg 1 % formaldehyde injected into a hind paw, licking of the paw scored 15-30 min after formalin injection)).
Assay type: functional

Row | SMILES | ED50 [µmol/kg]
1 | CCOc1ccc2cc(CP(=O)(O)O)c(C[C@@H](N)C(=O)O)nc2c1 | 150

These compounds were tested on Mus musculus (assay: Analgesic activity was evaluated in the mouse formalin test (20 uM/Kg 1% formaldehyde injected into a hind paw, licking of the paw scored 15-30 min after formalin injection)).
Assay type: functional

Row | SMILES | ED50 [µmol/kg]
2 | N[C@H](Cc1nc2ccc(Cl)cc2cc1CP(=O)(O)O)C(=O)O | 200

What follows are compounds tested on Mus musculus (assay: Analgesic activity was evaluated in the mouse formalin test (20 umol/kg 1 % formaldehyde injected into a hind paw, licking of the paw scored 15-30 min after formalin injection)).
Assay type: functional

Row | SMILES | ED50 [µmol/kg]
3 | Cc1cc2cc(CP(=O)(O)O)c(C[C@@H](N)C(=O)O)nc2cc1C | 42
4 | N[C@H](Cc1nc2cc(Cl)ccc2cc1CP(=O)(O)O)C(=O)O | 60

What follows are compounds tested against Glutamate NMDA receptor (assay: Binding affinity to the glutamate site of the NMDA receptor was measured by competitive inhibition of binding of [3H]-CGP- 39653 to rat or porcine cerebral cortex membranes).
Assay type: cell membranes, Membrane

Row | SMILES | pKi
5 | N[C@H](Cc1nc2ccncc2cc1CP(=O)(O)O)C(=O)O | 6.14
6 | N[C@H](Cc1nc2cccc(Cl)c2cc1CP(=O)(O)O)C(=O)O | 6.92
7 | Cc1cc2cc(CP(=O)(O)O)c(C[C@@H](N)C(=O)O)nc2cc1C | 8.30
8 | N[C@H](Cc1nc2ccc(Cl)cc2cc1CP(=O)(O)O)C(=O)O | 7.24
9 | CCOc1ccc2cc(CP(=O)(O)O)c(C[C@@H](N)C(=O)O)nc2c1 | 7.54
10 | N[C@H](Cc1nc2ccc(F)cc2cc1CP(=O)(O)O)C(=O)O | 6.85
11 | COc1cc2cc(CP(=O)(O)O)c(C[C@@H](N)C(=O)O)nc2cc1OC | 6.02
12 | N[C@H](Cc1nc2ccccc2cc1CP(=O)(O)O)C(=O)O | 6.91
13 | N[C@H](Cc1nc2cc(Cl)ccc2cc1CP(=O)(O)O)C(=O)O | 7.70
14 | NC(Cc1cc2ccccc2cc1CP(=O)(O)O)C(=O)O (stereo unspecified) | 6.85
15 | Cc1cc2cc(CP(=O)(O)O)c(C[C@H](N)C(=O)O)nc2cc1C | 6.37
16 | NC(Cc1oc2ccccc2c1CP(=O)(O)O)C(=O)O (stereo unspecified) | 5.57

Now from value to compound:

Row | pKi | SMILES
17 | 8.30 | N[C@H](Cc1nc2cc(Cl)c(Cl)cc2cc1CP(=O)(O)O)C(=O)O
18 | 8.40 | Cc1cc2cc(CP(=O)(O)O)c(C[C@@H](N)C(=O)O)nc2cc1Cl
19 | 7.74 | N[C@H](Cc1nc2cc(Cl)c(Cl)cc2n1CP(=O)(O)O)C(=O)O
20 | 7.89 | CCC/C(=C\C(N)C(=O)O)CP(=O)(O)O (stereo unspecified)
21 | 7.27 | Cc1ccc2cc(CP(=O)(O)O)c(C[C@@H](N)C(=O)O)nc2c1
22 | 7.54 | O=C(O)[C@@H]1C[C@H](CP(=O)(O)O)CCN1 (relative stereo) [SELFOTEL]
23 | 7.54 | N[C@H](Cc1nc2c(Cl)cc(Cl)cc2cc1CP(=O)(O)O)C(=O)O
24 | 8.47 | NC(Cc1nc2cc(Cl)c(Cl)cc2nc1CP(=O)(O)O)C(=O)O (stereo unspecified)
25 | 8.40 | CCc1cc2cc(CP(=O)(O)O)c(C[C@@H](N)C(=O)O)nc2cc1CC
26 | 7.13 | N[C@H](Cc1nc2ncccc2cc1CP(=O)(O)O)C(=O)O
